Like-named read-outs stand apart in the source and are kept apart here. No end group written: not given here.
Assays:
[1] = test system: MCF7; test: Anti-cancer assay, MTT, LD50; format: cell-based; settings: for LD50 MCF7: MCF7 breast adenocarcinoma line, MTT, 24 hours with peptide; for MCF7 LD50: Table 41, lower part
From the text: (§1) Numbers are LD50 values (μg/mL).

[2] = test system: H1299; test: Anti-cancer assay, MTT, LD50; format: cell-based; settings: 24 hours with peptide, lung large cell carcinoma
From the text: as §1

[3] = test system: SW480; test: Anti-cancer assay, MTT, LD50; format: cell-based; settings: SW480 colon adenocarcinoma line, 24 hours with peptide
From the text: as §1

[4] = test system: BMKC; test: Anti-cancer assay, MTT, LD50; format: cell-based; settings: BMKC cloned melanoma line, 24 hours with peptide
From the text: as §1

[5] = test system: PC3; test: Anti-cancer assay, MTT, LD50; format: cell-based; settings: 24 hours with peptide, prostate adenocarcinoma
From the text: as §1

[6] = test system: HeLaS3; test: Anti-cancer assay, MTT, LD50; format: cell-based; settings: 24 hours with peptide, cervical carcinoma
From the text: as §1

[7] = in vitro; settings: human, WI38 normal lung fibroblast cells
[8] = in vitro; format: cell-based, human; settings: human, human red blood cells
[9] = test system: Staphylococcus aureus ATCC 6538; test: Antimicrobial assay I, MIC by OD measurement; format: cell-based; settings: 37° C. for 24 hours, absorbance 620 nm
[10] = test system: Pseudomonas aeruginosa ATCC 9027; test: Antimicrobial assay I, MIC by OD measurement; format: cell-based; settings: 37° C. for 24 hours, absorbance 620 nm
[11] = test system: WI38; settings: MTT, 24 hours with peptide; normal fibroblast line
[12] = test system: yeast (Saccharomyces cerevisiae); test: Antimicrobial assay I, yeast assay in RPMI 1640; format: cell-based; settings: RPMI 1640 media
[13] = test system: tobramycin sensitive (ts) Pseudomonas ATCC 27853; test: Activity against drug resistant strains; format: cell-based; settings: tobramycin sensitive strain; Table 47
Description: (§2) Peptides were assayed for their activity against tobramycin sensitive and resistant strains.

[14] = test system: clinical tobramycin resistant strain 960890198-3c; test: Activity against drug resistant strains; format: cell-based; settings: clinical tobramycin resistant strain; Table 47
Description: as §2

[15] = test system: Pseudomonas aeruginosa; test: Serum inactivation of peptides, serum MIC; format: cell-based; settings: for MIC 30 min treatment: sheep serum 37° C. 30 minutes; for MIC 2 hr treatment: sheep serum 37° C. 2 hours
Description: Subsequently, the serum MICs against Pseudomonas aeruginosa were conducted to determine extent of serum inactivation of the peptides.

[16] = Solubility of peptides in sheep serum; format: physicochemical; settings: sheep serum, […], 70% serum
[17] = test system: P. aeruginosa H774; format: cell-based, Pseudomonas aeruginosa; settings: P. aeruginosa H744; nalidixic acid + peptide at ¼ MIC; 0.5 or less = synergy
Outline: (§3)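 Efflux-mutant strains were tested with two-fold serial dilutions of chloramphenicol or nalidixic acid, alone and with peptide held at ¼ of its own MIC.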

[18] = test system: P. aeruginosa; format: cell-based, Pseudomonas aeruginosa; settings: P. aeruginosa H744; MIC of nalidixic acid with peptide at ¼ MIC
Outline: as §3

[19] = test system: P. aeruginosa H374; format: cell-based, Pseudomonas aeruginosa; settings: for FIC Index: 0.5 or less = synergy
Outline: as §3

[20] = Leukocyte (WBC) inhibition, toxicity LD50; format: cell-based, human; settings: male, human, human leukocytes (buffy coat cells, mostly PBMCs); Table 41, lower part
Description: In vitro viability of human leukocyte cells in the presence of different peptides at different concentrations was determined by an Alamar Blue protocol. Alamar Blue (Promega, Madison, Wis.) is an indicator dye, formulated to measure quantitatively the proliferation and cytotoxicity of the cells. The dye consists of an oxidation-reduction (redox) indicator that yields a calorimetric change and a fluorescent signal in response to cellular metabolic activity.
Assay protocol: Blood from a human was drawn and centrifuged at 1500 rpm for 15 minutes at room temperature. The buffy coat cells at the plasma-red blood cell interface were aspirated. Buffy coat cells (mainly lymphocyte cells) were then transferred into 15 ml centrifuge tubes containing 5 ml of RPMI-1640 medium+10% Fetal Bovine Serum (Gibco, Grand Island, N.Y.). Additional medium was added to the tubes to bring the volume up to 10 ml. The buffy coat suspension was then carefully layered on 5 ml of Histopaque (Sigma Chemical Co., St. Louis, Mo.) and centrifuged at 1500 rpm for 30 minutes at room temperature. The interface which is mostly PBMCs (peripheral mononuclear cells) was aspirated and transferred to a 15 ml conical centrifuge tube and, resuspended in 2 ml cold RPMI-1640 and brought up to 15 ml with cold RPMI-1640 medium. Cells were centrifuged at 1500 rpm for 10 minutes. The supernatant was then aspirated and discarded. The cell pellet was re-suspended in 1 ml of cold RPMI 1640 and brought up to 15 ml with RPMI medium. This step was repeated twice, except that in the last step, the cells were resuspended with 1 ml of cold RPMI-1640 medium and cell counts were performed with a hemocytometer according to the Sigma cell culture catalogue.
Pokewood mitogen was used as a control along with positive and negative controls. Negative control cells were killed with 70% methanol. Positive (+) control cells were incubated in RPMI medium (untreated). […] of AlamarBlue was added to the cells, and readings were taken after 24 hours, 48 hours, 72 hours, and 96 hours using a fluorimeter (excitation 544/transmission 590 nm).
In choosing a peptide for possible treatment of a given indication it is important to match the therapeutic activity and specificity of the peptide with its possible toxic properties.
The protocols for WBC and WI38 stimulation have been discussed above. The RBC protocol follows Table 24.

[21] = test system: MCF7 line of breast cancer cells; settings: for MCF7 LD50: agent alone; for Active agent LD50 on MCF7 cells: Total conc.: peptide plus tamoxifen concentration at LD50; for Active agent LD50 on MCF7 cells: Peptide conc.: peptide with tamoxifen, peptide concentration at LD50; for Active agent LD50 on MCF7 cells: Tamox. conc.: tamoxifen concentration at LD50 (peptide with tamoxifen; tamoxifen alone in its own line)
[22] = LD50 WI38, WI38 normal lung fibroblast line, MTT, 24 hours with peptide
[23] = pH 7, hemolytic assay, concentration at 50% hemolysis, 1 hour at 37° C., read-out: LD50
[24] = WI38 LD50, Table 41, lower part
[25] = pH 7, Table 41, lower part, read-out: RBC LD50

Substance	LD50 MCF7 [1] [µg/mL]	H1299 LD50 [2] [µg/mL]	LD50 SW480 [3] [µg/mL]	LD50 BMKC [4] [µg/mL]	PC3 LD50 [5] [µg/mL]	HeLaS3 LD50 [6] [µg/mL]	CC50 at 24 h [7, 22] [µg/mL]	HC50 at 1 h [8, 23] [µg/mL]	staph6538 (MIC) [9] [µg/mL]	paerug9027 (MIC) [10]	WI38 LD50 [11] [µg/mL]	yeast (MIC or MFC) [12]	MCF7 LD50 [1] [µg/mL]	CC50 [20] [µg/mL]	CC50 at 24 h [7, 24] [µg/mL]	HC50 at 1 h [8, 25] [µg/mL]	MCF7 LD50 [21] [µg/mL]	Active agent LD50 on MCF7 cells: Total conc. [21] [µg/mL]	Active agent LD50 on MCF7 cells: Peptide conc. [21] [µg/mL]	Active agent LD50 on MCF7 cells: Tamox. conc. [21] [µg/mL]	other results
FAKALAKLAKKLL-NH2 [P92]	23	25	51	46	83	670	43	300	5	5 µg/mL	43	50 µg/mL	–	–	–	–	–	–	–	–	activity against ts Pseudomonas 27853 [13]: 63; activity against tr Pseudomonas 960890198-3c [14]: 50
KWKLFKKKTKLFKKFAKKLAKKL-OH [P81]	63	22	13	12	170	19	8	8	10	> (> indicates greater than 200 μg/mL)	8	> (> indicates greater than 200 μg/mL)	–	–	–	–	–	–	–	–	MIC 30 min treatment ([15]; first of two columns): 20 µg/mL; MIC 30 min treatment ([15]; second of two columns): 20 µg/mL; MIC 2 hr treatment ([15]; first of two columns): 20 µg/mL; MIC 2 hr treatment ([15]; second of two columns): 20 µg/mL; Solubility [16]: Precipitated; FIC Index [17]: 1.25; MIC Nal-comb. [18]: 624 µg/mL; MIC Cm-comb. ([19]; MIC of chloramphenicol with peptide at ¼ MIC): 16 µg/mL; MIC Nal-comb. ([19]; MIC of nalidixic acid with peptide at ¼ MIC): 5000 µg/mL; FIC Index ([19]; chloramphenicol + peptide at ¼ MIC): 1.25; FIC Index ([19]; nalidixic acid + peptide at ¼ MIC, FIC=0.25+MIC comb/MIC alone): 1.25
FALALKALKKAL-NH2 [106 (144)]	–	–	–	–	–	–	–	–	–	–	–	–	310	320	740	600	310	42.7	35	7.7	–
WALAL-NH2 [145 (184)]	–	–	–	–	–	–	–	–	–	–	–	–	240	410	1000	850	240	14	10	4	–
FAKKLAKKLKKLAKKLAK-NH2 [164 (69)]	–	–	–	–	–	–	–	–	–	–	–	–	79	140	60	900	79	7.1	2.5	4.6	–
KLAKKLAKLAKLAKAL-OH [121 (160)]	–	–	–	–	–	–	–	–	–	–	–	–	240	900	700	> 1000	240	14.7	11	3.7	–

From US20050209157A1, “Short bioactive peptides and methods for their use” (priority 2001, published 2005)
